Converted amounts (≈) assume the structure as drawn. “And” between values parts separate entries of the source, which are not always exact repeats. Identical values can stand only once.
Tests used:
Aqueous solubility = details: water
Acanthocheilonema viteae = test: Antifilarial dual infection screen in jirds: adult A. viteae burden and microfilaremia; type: in vivo, in Mongolian jirds; details: for % Macrofilarial reduction, A. viteae: day 56
Description: (§1) Dual infections of the filarial worms Brugia pahangi and Acanthocheilonema viteae in jirds are used routinely for antifilarial screening [McCall, J. W., McTier, T. L., and Rowan, S. J., "In vivo models for evaluating potential antifilarial agents", Onchocerciasis/Filariasis (Proceedings of a Symposium sponsored by the World Health Organization), Kalamazoo, Mich., Apr. 8-10, 23-24 (1986)].
(§2) For this dual infection screen, male Mongolian jirds weighing 50-60 g are infected SC with 10 (5 male and 5 female) adult A. viteae, transplanted under sodium pentobarbital anesthesia (48 mg/kg) from donor hamsters infected SC 8 weeks earlier. Two weeks later, 20 (10 male and 10 female) adult B. pahangi, taken from donor jirds infected IP 8 weeks earlier, are transplanted into the peritoneal cavity of each jird under sodium pentobarbital anesthesia. After an additional week, when the jirds have acceptable levels of microfilaremia, they are randomly allocated to treatment groups of 3 animals each and a nontreated group of 4-6 animals. Microfilaremia is determined on days 0 (just prior to the first dose), 4 and 56 post-treatment. Unless indicated otherwise, compounds are suspended in hydroxyethylcellulose (0.5%) - Tween 80 (0.1%) and administered SC at 100 mg/kg/day for 5 consecutive days. All jirds are killed on day 56 post-treatment to determine the effects of drugs on adults of A. viteae and B. pahangi. Live worms are identified as to species, noted as to sex, and counted. The number of dead and/or encapsulated worms is also recorded. A reduction of ≥80% in microfilaremia or ≥50% in adult worm burden (either species) compared with pre-treatment microfilaremia or non-treated control worm burden, respectively, is considered to be significant. For secondary testing with this dual infection screen, groups of 7 animals each are used. For oral dosing, drugs are dissolved or suspended in hydroxyethylcellulose - Tween 80 and administered by gavage.

B. pahangi and A. viteae = test: Antifilarial activity in jirds, dual infection, summary in words; type: in vivo; details: both oral and parenteral routes
Description: as §1
For this dual infection screen, male Mongolian jirds weighing 50-60 g are infected SC with 10 (5 male and 5 female) adult A. viteae, transplanted under sodium pentobarbital anesthesia (48 mg/kg) from donor hamsters infected SC 8 weeks earlier. Two weeks later, 20 (10 male and 10 female) adult B. pahangi, taken from donor jirds infected IP 8 weeks earlier, are transplanted into the peritoneal cavity of each jird under sodium pentobarbital anesthesia. After an additional week, when the jirds have acceptable levels of microfilaremia, they are randomly allocated to treatment groups of 3 animals each and a nontreated group of 4-6 animals. Microfilaremia is determined on days 0 (just prior to the first dose), 4 and 56 post-treatment. […] Live worms are identified as to species, noted as to sex, and counted. The number of dead and/or encapsulated worms is also recorded. […]

Brugia pahangi [1] = test: Antifilarial dual infection screen in jirds: adult B. pahangi burden; type: in vivo, in Mongolian jirds; details: day 56
Description: as §1, §2

Brugia pahangi [2] = test: Antifilarial effect in beagle dogs infected with Brugia pahangi; type: in vivo
Description: The infective larvae of B. pahangi were produced and collected as described by McCall [J. Georgia Entomol. Soc. 16:283-293, (1981)]. The dogs were given 100 L3 of B. pahangi by subcutaneous injection (SC) into the dorsum of each hind paw or 200 L3 in one hind paw (i.e., a total inoculum of 200 L3 per dog).
The dogs were randomly allocated to treatment groups containing 4 dogs. The dogs were divided by sex and ranked by declining baseline microfilarial counts (average count based on the 5 bleedings made before the day of treatment). Those dogs which were amicrofilaremic or had very few microfilariae were excluded from the trial. Of the remaining dogs, those with the highest baseline microfilaremias were assigned to seven-dog replicates. The sex of the dogs within three of the replicates was the same, while the fourth replicate contained dogs of both sexes. The dogs of a given sex with the highest levels of microfilaremia were placed in the same replicate. The next set of dogs of that sex with the next highest levels of microfilaremia was assigned to the next replicate, and so on until all of the replicates were filled. The dogs within each complete replicate were assigned to test groups using a table of random numbers [Ostle and Mensing, Statistics in Research, Third Edition, Iowa State University Press, Ames, Iowa, pp. 560-563, (1975)]. The test groups were likewise assigned to either control or treatment groups using the table of random numbers.
The first day of treatment, day 0, was approximately 144 days after infection. Drugs were administered orally as a 10% suspension in HEC-Tween 80 or in soft gelatin capsules. Drugs were administered intramuscularly or subcutaneously as a 10% suspension in peanut oil or in HEC-Tween 80. Groups of four dogs served in sham-treated controls in each experiment. All of the treatments were given by IM injection in the dorsal lumbar muscles.
(§3) All dogs were observed frequently during each day of treatment and daily throughout the remainder of the study for any signs of reactions. In addition, the hair was shaved at the injection sites to facilitate the observation of possible tissue irritation resulting from treatment.
Blood was collected from each dog on days 51, 43, 27, 19, and 5 before treatment to determine baseline microfilaremias and allocate the dogs to treatment groups. Blood was then collected from all dogs on the day before treatment on day -1, on days 7, 10, 14, 21, 28, 35, 42, 49, and 56 days after treatment. All bleedings were done at approximately the same time of day (11:00-12:00 E.S.T.). Two 20-μl blood films were prepared from each sample and stained with giemsa. Microfilarial counts were made from the 2 blood films.
The dogs were euthanized for necropsy either two or six months after the first day of treatment. Just prior to euthanasia, the dogs were given a subcutaneous injection (SC) of a two percent solution of Evans blue into the dorsum of both hind paws in order to help delineate the lymphatic vessels. This was followed at least 30 minutes later with a lethal dose of Fatal-Plus® (Vortech Pharmaceuticals, Dearborn, Mich.). A limited necropsy was performed on each dog with examination of the afferent and efferent lymphatics of both hindlimbs and the popliteal, inguinal, internal and external iliac, and lumbar lymph nodes. Any live or dead worms seen were removed. These vessels and lymph nodes were removed, teased, and soaked overnight in normal saline to allow any worms to migrate out of the tissues. The condition of the worms, their sex and number, and the location from which they were recovered were noted.
Effectiveness against the adult parasites was determined as follows: [formula] Effectiveness against microfilariae for a given day after treatment was determined as follows: [formula]
The adult B. pahangi counts and the microfilarial counts were compared using a one way analysis of variance (ANOVA). […]

[3] = Local muscle irritation at injection site in beagle dogs; type: in vivo; details: IM, 12.5-50 mg/kg/day for 2 to 3 days
Description: as §3

adult worms = details: background art; cited from earlier work
microfilariae = details: background art; cited from earlier work
[4] = IM, 6.25 mg/kg/day × 3, peanut oil
[5] = IM, 12.5 mg/kg/day × 3, peanut oil
[6] = IM, 25 mg/kg/day × 3, peanut oil
[7] = IM, 50 mg/kg/day × 1, peanut oil
[8] = IM, 50 mg/kg/day × 2, peanut oil
[9] = IM, 50 mg/kg/day × 3, peanut oil
[10] = PO, 200 mg/kg/day bid × 3, HEC-Tween 80
[11] = SC, 50 mg/kg/day × 3, HEC-Tween 80

Structure (SMILES): COC(=O)Nc1nc2cc(C(N)c3ccc(F)cc3)ccc2[nH]1 (racemic) [Example 1, Methyl (±)-[5-[Amino(4-Fluorophenyl)Methyl]-1H-Benzimidazol-2-yl]Carbamate]
- solubility (Aqueous solubility): 180 µg/mL (≈ 573 µM)
- % Microfilarial reduction, A. viteae, Day 4 (Acanthocheilonema viteae; 25 mg/kg/day × 5 days, SC): 0%
- % Macrofilarial reduction, A. viteae (Acanthocheilonema viteae; 25 mg/kg/day × 5 days, SC): 88%
- antifilarial activity in jirds (B. pahangi and A. viteae): outstanding antifilarial activity
- % Macrofilarial reduction, B. pahangi (Brugia pahangi [1]; 1.56 mg/kg/day × 5 days, SC): 16%
- % Macrofilarial reduction, B. pahangi (Brugia pahangi [1]; 6.25 mg/kg/day × 5 days, SC): 92%
- % Macrofilarial reduction, B. pahangi (Brugia pahangi [1]; 12.5 mg/kg/day × 5 days, SC): 100%
- % Macrofilarial reduction, B. pahangi (Brugia pahangi [1]; 25 mg/kg/day × 5 days, SC): 100%
- Dogs cured/Treated (Brugia pahangi [2]; [4]): 0/4
- Percent reduction Macrofilariae (Brugia pahangi [2]; [4]): 38%
- Percent reduction Microfilariae (Brugia pahangi [2]; [4]): 50%
- Dogs cured/Treated (Brugia pahangi [2]; [5]): 1/4
- Percent reduction Macrofilariae (Brugia pahangi [2]; [5]): 91%
- Percent reduction Microfilariae (Brugia pahangi [2]; [5]): 76%
- Dogs cured/Treated (Brugia pahangi [2]; [6]): 4/4
- Percent reduction Macrofilariae (Brugia pahangi [2]; [6]): 100%
- Percent reduction Microfilariae (Brugia pahangi [2]; [6]): 72%
- Dogs cured/Treated (Brugia pahangi [2]; [7]): 0/4
- Percent reduction Macrofilariae (Brugia pahangi [2]; [7]): 85%
- Percent reduction Microfilariae (Brugia pahangi [2]; [7]): 55%
- Dogs cured/Treated (Brugia pahangi [2]; [8]): 2/4
- Percent reduction Macrofilariae (Brugia pahangi [2]; [8]): 92%
- Percent reduction Microfilariae (Brugia pahangi [2]; [8]): 59%
- Dogs cured/Treated (Brugia pahangi [2]; [9]): 4/4
- Percent reduction Macrofilariae (Brugia pahangi [2]; [9]): 100%
- Percent reduction Microfilariae (Brugia pahangi [2]; IM, 50 mg/kg/day × 3, peanut oil, 50 mg/kg/day): 100% and 99%
- cure of B. pahangi infections (Brugia pahangi [2]; IM, 12.5-50 mg/kg/day for 2 to 3 days): cured dogs of B. pahangi infections
- Percent reduction Macrofilariae (Brugia pahangi [2]; [10]): 93%
- Percent reduction Microfilariae (Brugia pahangi [2]; [10]): 97%
- Dogs cured/Treated (Brugia pahangi [2]; PO, 200 mg/kg/day bid × 3, HEC-Tween 80, necropsied 6 months): 1/3
- Dogs cured/Treated (Brugia pahangi [2]; [11]): 1/4
- Percent reduction Macrofilariae (Brugia pahangi [2]; [11]): 76%
- Percent reduction Microfilariae (Brugia pahangi [2]; [11]): 78%
- cure of B. pahangi infections (Brugia pahangi [2]; administered orally): also curative when administered orally
- local muscle irritation [3]: no local muscle irritation

Structure (SMILES): COC(=O)Nc1nc2cc(C(N)c3ccccc3)ccc2[nH]1 (racemic) [Example 3, Methyl (±)-[5-[Amino (Phenyl)Methyl]-1H-Benzimidazol-2-yl]Carbamate]
- % Microfilarial reduction, A. viteae, Day 4 (Acanthocheilonema viteae; 100 mg/kg/day × 5 days, oral): 83%
- % Microfilarial reduction, A. viteae, Day 56 (Acanthocheilonema viteae; 100 mg/kg/day × 5 days, oral): 83%
- % Macrofilarial reduction, A. viteae (Acanthocheilonema viteae; 100 mg/kg/day × 5 days, oral): 80%
- % Macrofilarial reduction, B. pahangi (Brugia pahangi [1]; 1.56 mg/kg/day × 5 days, SC): 23%
- % Macrofilarial reduction, B. pahangi (Brugia pahangi [1]; 6.25 mg/kg/day × 5 days, SC): 0%
- % Macrofilarial reduction, B. pahangi (Brugia pahangi [1]; 25 mg/kg/day × 5 days, SC): 75%
- % Macrofilarial reduction, B. pahangi (Brugia pahangi [1]; 100 mg/kg/day × 5 days, SC): 100%
- % Macrofilarial reduction, B. pahangi (Brugia pahangi [1]; 100 mg/kg/day × 5 days, oral): 52%

Structure (SMILES): COC(=O)Nc1nc2cc(C(N)c3ccccc3)ccc2[nH]1.Cl.Cl (racemic) [Example 4, Methyl (±)-[5-[Amino (Phenyl)Methyl]-1H-Benzimidazol-2-yl]Carbamate Dihydrochloride Salt]
- % Microfilarial reduction, A. viteae, Day 4 (Acanthocheilonema viteae; 3.13 mg/kg/day × 5 days, SC): 75%
- % Microfilarial reduction, A. viteae, Day 56 (Acanthocheilonema viteae; 3.13 mg/kg/day × 5 days, SC): 50%
- % Macrofilarial reduction, A. viteae (Acanthocheilonema viteae; 3.13 mg/kg/day × 5 days, SC): 9%
- % Microfilarial reduction, A. viteae, Day 4 (Acanthocheilonema viteae; 6.25 mg/kg/day × 5 days, SC): 67%
- % Microfilarial reduction, A. viteae, Day 56 (Acanthocheilonema viteae; 6.25 mg/kg/day × 5 days, SC): 67%
- % Macrofilarial reduction, A. viteae (Acanthocheilonema viteae; 6.25 mg/kg/day × 5 days, SC): 27%
- % Microfilarial reduction, A. viteae, Day 4 (Acanthocheilonema viteae; 12.5 mg/kg/day × 5 days, SC): 88%
- % Microfilarial reduction, A. viteae, Day 56 (Acanthocheilonema viteae; 12.5 mg/kg/day × 5 days, SC): 50%
- % Macrofilarial reduction, A. viteae (Acanthocheilonema viteae; 12.5 mg/kg/day × 5 days, SC): 31%
- % Microfilarial reduction, A. viteae, Day 4 (Acanthocheilonema viteae; 100 mg/kg/day × 5 days, oral): 91%
- % Microfilarial reduction, A. viteae, Day 56 (Acanthocheilonema viteae; 100 mg/kg/day × 5 days, oral): 91%
- % Macrofilarial reduction, A. viteae (Acanthocheilonema viteae; 100 mg/kg/day × 5 days, oral): 81%
- % Microfilarial reduction, A. viteae, Day 4 (Acanthocheilonema viteae; 200 mg/kg/day × 5 days, oral): 67%
- % Microfilarial reduction, A. viteae, Day 56 (Acanthocheilonema viteae; 200 mg/kg/day × 5 days, oral): 100%
- % Macrofilarial reduction, A. viteae (Acanthocheilonema viteae; 200 mg/kg/day × 5 days, oral): 100%
- % Macrofilarial reduction, B. pahangi (Brugia pahangi [1]; 3.13 mg/kg/day × 5 days, SC): 15%
- % Macrofilarial reduction, B. pahangi (Brugia pahangi [1]; 6.25 mg/kg/day × 5 days, SC): 14%
- % Macrofilarial reduction, B. pahangi (Brugia pahangi [1]; 12.5 mg/kg/day × 5 days, SC): 18%
- % Macrofilarial reduction, B. pahangi (Brugia pahangi [1]; 100 mg/kg/day × 5 days, oral): 30%
- % Macrofilarial reduction, B. pahangi (Brugia pahangi [1]; 200 mg/kg/day × 5 days, oral): 100%

Structure (SMILES): CCN(CC)C(=O)N1CCN(C)CC1 [Diethylcarbamazine]
- activity against adult worms (macrofilaricidal) (adult worms): kill adults of lymphatic filariae in some, but far from all patients
- activity against microfilariae (microfilariae): has the ability to destroy microfilariae

From patent publication US5278181A, “Soluble alkyl[5-[amino (phenyl)methyl]-1H-benzimidazol-2-yl] carbamate anthelmintics” (priority 1992, dated 1994)
